Assay results taken from patent US20040001845A1, “Cytotoxic T-cell epitopes of HIV-1 virus” (priority 2002, published 2004).

Tested on: PBMC (HIV-1-specific CD8+ T cells) of subject AC-06
Experiment: IFN-γ Elispot assay of HIV-1-specific CD8+ T cell responses in subject AC-06
Type: cell-based, human
[1] = subject AC-06, 0 months after infection
[2] = subject AC-06, 2 months after infection
[3] = subject AC-06, 6 months after infection
[4] = subject AC-06, 12 months after infection
[5] = subject AC-06, 18 months after infection
[6] = subject AC-06, 20 months after infection
[7] = subject AC-06, 24 months after infection
[8] = subject AC-06, 29.5 months after infection
[9] = subject AC-06, 34 months after infection

Row | Sequence | magnitude of HIV-1-specific CD8+ T cell responses at the single epitope level [1] [SFC/Million PBMC] | magnitude of HIV-1-specific CD8+ T cell responses at the single epitope level [2] [SFC/Million PBMC] | magnitude of HIV-1-specific CD8+ T cell responses at the single epitope level [3] [SFC/Million PBMC] | magnitude of HIV-1-specific CD8+ T cell responses at the single epitope level [4] [SFC/Million PBMC] | magnitude of HIV-1-specific CD8+ T cell responses at the single epitope level [5] [SFC/Million PBMC] | magnitude of HIV-1-specific CD8+ T cell responses at the single epitope level [6] [SFC/Million PBMC] | magnitude of HIV-1-specific CD8+ T cell responses at the single epitope level [7] [SFC/Million PBMC] | magnitude of HIV-1-specific CD8+ T cell responses at the single epitope level [8] [SFC/Million PBMC] | magnitude of HIV-1-specific CD8+ T cell responses at the single epitope level [9] [SFC/Million PBMC]
1 | SPRTLNAWV [B7-SV9] | 0 | 0 | 0 | 0 | 0 | 0 | 0 | 680 | 120
2 | SPAIFQSSM [B7-SM9] | 0 | 0 | 0 | 0 | 0 | 90 | 130 | 1400 | 1000
3 | ERILSTYLGR [A3-ER10] | 0 | 0 | 0 | 0 | 0 | 0 | 310 | 460 | 1300
4 | KTKPPLPSVKK [A3-KK11] | 0 | 0 | 0 | 0 | 0 | 150 | 340 | 600 | 1200
5 | HPRVSSEVHI [B7-HI10] | 0 | 0 | 0 | 0 | 0 | 500 | 880 | 1800 | 1800
6 | FPRIWLHGL [B7-FL9] | 0 | 0 | 0 | 0 | 0 | 0 | 210 | 380 | 960
7 | HPVHAGPIA [B7-HA9] | 0 | 0 | 0 | 0 | 0 | 0 | 0 | 700 | 360
